Laboratory results taken from patent US5378718A, “1,4-dihydropyridine derivatives” (Cedona Pharmaceuticals B.V., priority 1990, dated 1995).

Assays:
contracted rat aorta = assay: In vitro rat aorta assay, relaxation of KCl-contracted aorta strips; assay type: cell-based; settings: rat thoracic aorta strips contracted with 50 mM KCl, 1.25 mM CaCl2; concentration at which residual contraction is 50% of maximum
Experimental: Strips of thoracial rat aortae (without aortic arch, helically cut; length 1-1.5 cm; width about 2 mm) were place in an organ bath [20 ml; Krebs Ringer medium bubbled with O2 /CO2 (95/5%) at 37` C.]. A resting tension of 0.5 g was applied and the preparations were equilibrated during 100 min (fresh buffer solution every 20 min). The strips were isotonically contracted with 50 mM KCl (equimolar part of NaCl in buffer omitted) in the presence of 1.25 mM CaCl2.
Drug-induced relaxation was tested at increasing concentration (half log steps), till maximal or full relaxation (corresponding to basal precontraction value of organ length) had been reached.
Responses were calculated as change in organ length relatively to maximal displacement by contraction, EC50 values corresponding to the drug concentration at which residual contraction is 50% of maximum.

arterial blood pressure = assay: Anesthetized rabbit experiments, lowering of arterial blood pressure; assay type: in vivo, New Zealand white rabbits; design: key: Inactive: No decrease or decrease less than 5%; Active: Decrease between 5 and 40%; Very Active: Decrease greater than 40%; settings: end of 10 min i.v. infusion at highest dose tested (150-200 μg×kg^-1×min^-1), decrease as percentage of basal value
Experimental: […]
Animals Anesthesia and Surgical Procedures
New Zealand white rabbits (2.5-3 kg) were anesthetized (30 mg×kg^-1 pentobarbitone, i.v., supplemetal doses as needed). Tracheotomy was performed, and an intra-tracheal cannula was inserted. No artificial ventilation was applied and body temperature was maintained at 37°-38° C.
Left ventricular pressure (LVP) was measured (millar Mikro-Tip catheter via the right carotid artery with transducer in the left ventricle). The LVP signal was differentiated electronically to obtain the rate of change of LVP (LV dP/dt). The heart rate (HR) was derived from the LVP pulse signal. The jugular vein was cannulated for infusion of the test compounds. Aortic blood pressure (SAP and DAP) was monitored (Gould-Statham pressure transducer) by inserting a polyethylene catheter filled with heparin (50 IU×ml^-1) through the femoral artery into the abdominal aorta. Heparin (150 IU×kg^-1, i.v.) was administered to prevent blood clotting.
After completion of surgical procedures, the rabbits were allowed to recover for 15 minutes before drug administration was started.
Infusion of Test Compounds and Test Protocol
Drugs were infused at constant rate (0.5 ml×min^-1) for 10 minutes at various doses, resulting in a typical dose range of 2.0, 20.0 and 200 μg×kg^-1 ×min^-1 (2.5 kg rabbit).
Due to poor solubility, 1 mg×ml^-1 solutions of all the compounds tested were prepared in Intralipid^(R) 10%, containing 10% (v/v) dimethyl sulfoxide (DMSO). […] At the infusion of lower doses, the 1 mg×ml^-1 stock solutions were diluted with Intralipid^(R) 10%.
The presented data are based on the effects obtained at the end of the 10 min infusion period at the highest dose tested (150-200 μg×kg^-1 'min^-1).
The indicated ratings are referring to the effects (decrease, defined as percentage of basal value before infusion of the drug) on arterial blood pressure as follows: […]

Compound | EC50 (contracted rat aorta) | Activity with regard to the lowering of blood pressure (arterial blood pressure)
COC(=O)C1=C(C)NC(C)=C(C(=O)OC)C1c1ccccc1OC1CCCCC1O[N+](=O)[O-] (stereo not shown) [Example XXXVII, 3,5-Dimethoxycarbonyl-2,6-dimethyl-4-[2-(2-nitroxycyclohexoxy)phenyl]-1,4-dihydropyridine×methanol] | 68 nM | –
CCOC(=O)C1=C(C)NC(C)=C(C(=O)OCC)C1c1ccccc1OCCCCCCCCCCO[N+](=O)[O-] [Example XXV, 3,5-Diethoxycarbonyl-2,6-dimethyl-4-[2-(10-nitroxy-decyloxy)phenyl]-1,4-dihydropyridine] | 67 nM | –
CCOc1cccc(C2C(C(=O)OC)=C(C)NC(C)=C2C(=O)OC)c1OCCO[N+](=O)[O-] [Example XVIII, 3,5-Dimethoxycarbonyl-2,6-dimethyl-4-[3-ethoxy-2-(2-nitroxyethoxy)phenyl]-1,4-dihydropyridine×H2 O] | – | Active
CCOC(=O)C1=C(C)NC(C)=C(C(=O)OC)C1c1ccccc1OCCCCO[N+](=O)[O-] (stereo not shown) [Example XXIX, 2,6-Dimethyl-3-ethoxycarbonyl-5-methoxycarbonyl-4-[2-(4-nitroxybutoxy)phenyl]-1,4-dihydropyridine×2H2 O] | 2.6 nM | –
CCOC(=O)C1=C(C)NC(C)=C(C(=O)OCC)C1c1ccc(OC(=O)CCCO[N+](=O)[O-])cc1 [Example I, 3,5-Diethoxycarbonyl-2,6-dimethyl-4-[4-(3-nitroxypropyl)carbonyloxy]phenyl-1,4-dihydropyridine] | – | Active
CCOC(=O)C1=C(C)NC(C)=C(C(=O)OCC)C1c1ccccc1OC[C@H]1CC[C@H](CO[N+](=O)[O-])CC1 [Example XXIV, 3,5-Diethoxycarbonyl-2,6-dimethyl-4-[2-[(4-nitroxymethyl-(trans)-cyclohexyl)methoxy]phenyl]-1,4-dihydropyridine] | 7.8 nM | –
COC(=O)C1=C(C)NC(C)=C(C(=O)OC)C1c1cccc(OC)c1OCCO[N+](=O)[O-] [Example XVII, 3,5-Dimethoxycarbonyl-2,6-dimethyl-4-[3-methoxy-2-(2-nitroxyethoxy)phenyl]-1,4-dihydropyridine×H2 O] | 88 nM | Active
COC(=O)C1=C(C)NC(C)=C(C(=O)OC)C1c1cc([N+](=O)[O-])ccc1OCCO[N+](=O)[O-] [Example XIV, 3,5-Dimethoxycarbonyl-2,6-dimethyl-4-[2-(2-nitroxy-ethoxy)-5-nitrophenyl]-1,4-dihydropyridine] | 80 nM | –
2,6-Dimethyl-3-methyloxycarbonyl-5-methyloxycarbonyl-4-[2-(nitroxyhexyloxyphenyl)]-1,4-dihydropyridine [Example XXXI] | – | Active
COC(=O)C1=C(C)NC(C)=C(C(=O)OC)C1c1ccccc1OCCO[N+](=O)[O-] [Example VII, 3,5-Dimethoxycarbonyl-2,6-dimethyl-4-[2-(2-nitroxy-ethoxy)phenyl]-1,4-dihydropyridine] | 59 nM | –
COC(=O)C1=C(C)NC(C)=C(C(=O)OC)C1c1ccccc1OC[C@@H](C)CO[N+](=O)[O-] [Example XXXVIII] | 75 nM | –

Now from value to compound, other results behind:

EC50 (contracted rat aorta) | Compound | Activity with regard to the lowering of blood pressure (arterial blood pressure)
38 nM | CCOC(=O)C1=C(C)NC(C)=C(C(=O)OCC)C1c1ccccc1OCCOCCOCCO[N+](=O)[O-] [Example XX, 3,5-Diethoxycarbonyl-2,6-dimethyl-4-(2-{2-[2-(2-nitroxy-ethoxy)ethoxy]ethoxy}-phenyl)-1,4-dihydropyridine] | Active
12 nM | CCOC(=O)C1=C(C)NC(C)=C(C(=O)OC)C1c1ccccc1OCCCO[N+](=O)[O-] (stereo not shown) [Example XXVI, 2,6-Dimethyl-3-ethoxycarbonyl-5-methoxycarbonyl-4-[2-(3-nitroxypropoxy)phenyl]-1,4-dihydropyridine] | –
5.7 nM | COC(=O)C1=C(C)NC(C)=C(C(=O)OC)C1c1ccccc1OCCCO[N+](=O)[O-] [Example XXVII, 3,5-Dimethoxycarbonyl-2,6-dimethyl-4-[2-(3-nitroxypropoxy)phenyl]-1,4-dihydropyridine] | –
6.5 nM | COC(=O)C1=C(C)NC(C)=C(C(=O)OC)C1c1ccccc1OC[C@H]1CC[C@H](CO[N+](=O)[O-])CC1 [Example XXXII, 3,5-Dimethoxycarbonyl-2,6-dimethyl-4-{2-[4-nitroxymethyl(trans)cyclohexylmethoxy]phenyl}-1,4-dihydropyridine] | –
9 nM | COC(=O)C1=C(C)NC(C)=C(C(=O)OC)C1c1ccccc1OCCCCCCO[N+](=O)[O-] [Example XXX, 3,5-Dimethoxycarbonyl-2,6-dimethyl-4-[2-(6-nitroxyhexyloxy)phenyl]-1,4-dihydropyridine] | –
85 nM | COC(=O)C1=C(C)NC(C)=C(C(=O)OC)C1c1cc(Cl)ccc1OCCO[N+](=O)[O-] [Example XV] | Active
5 nM | COC(=O)C1=C(C)NC(C)=C(C(=O)OC)C1c1ccccc1OCCCCCCCCO[N+](=O)[O-] [Example XXXV, 2,6-Dimethyl-3,5-dimethoxycarbonyl-4-[2-(8-nitroxyoctyloxy)phenyl]-1,4-dihydropyridine] | –
60 nM | CCOC(=O)C1=C(C)NC(C)=C(C(=O)OCC)C1c1ccccc1OCC(C)(C)CO[N+](=O)[O-] [Example XXII, 3,5-Diethoxycarbonyl-2,6-dimethyl-4-[2-(2,2-dimethyl-3-nitroxypropoxy)-phenyl]-1,4-dihydropyridine] | –
80 nM | COC(=O)C1=C(C)NC(C)=C(C(=O)OC)C1c1cc(Br)ccc1OCCO[N+](=O)[O-] [XIX, 4-[5-Bromo-2-(2-nitroxyethoxy)phenyl]-3,5-dimethoxy-carbonyl-2,6-dimethyl-1,4-dihydropyridine] | Active
14 nM | CCOC(=O)C1=C(C)NC(C)=C(C(=O)OCC)C1c1ccccc1OCCO[N+](=O)[O-] [Example XXI, 3,5-Diethoxycarbonyl-2,6-dimethyl-4-[2-(2-nitroxy-ethoxy)phenyl]-1,4-dihydropyridine] | –
7.7 nM | CCOC(=O)C1=C(C)NC(C)=C(C(=O)OCC)C1c1ccccc1OCCCO[N+](=O)[O-] [Example XXVIII] | –
16 nM | COC(=O)C1=C(C)NC(C)=C(C(=O)OC)C1c1ccccc1OCC(C)O[N+](=O)[O-] (stereo not shown) [Example XXXIII, 3,5-Dimethoxycarbonyl-2,6-dimethyl-4-{2-[2-nitroxypropyloxy)phenyl}-1,4-dihydropyridine] | –
28 nM | CCOC(=O)C1=C(C)NC(C)=C(C(=O)OC)C1c1ccccc1OCC(C)(C)CO[N+](=O)[O-] (stereo not shown) [Example XXIII, 2,6-Dimethyl-4-[2-(2,2-dimethyl-3-nitroxypropoxy)-phenyl]-3-ethoxycarbonyl-5-methoxycarbonyl-1,4-dihydro-pyridine×H2 O] | –
